Read-outs that look alike come from different tables or passages of the source.
What was measured:
[1] = system: insulin receptors; experiment: 125I-insulin binding to erythrocytes of brazilin treated diabetic mice
Procedure: For interpreting these findings, further tests were made with the aim to find out whether brazilin changes the affinity of the insulin receptors or can possibly increase the number of the insulin receptors.
From the laboratory animals of the above-mentioned control group (diabetic mice) and the test group (diabetic brazilin treated mice) erythrocytes (2.6×10^9 /ml) were taken, ^125 I-insulin was bound thereto (85 pM^125 I), and thereupon incubated in the presence of increasing amounts of unlabelled insulin (32 pM to 1.8 / μm) at 15° C. for 120 min. The amount of specifically bound ^125 I-insulin was then determined by subtracting the non-specifically bound insulin (10 ng/ml). The results obtained are shown in the graph of FIG. 6.

[2] = system: fat pads isolated from rats; experiment: Glucose oxidation: formation of 14CO2 in fat pads isolated from rats; format: in vivo
Source text: Insulin-dependent diabetes mellitus is frequently accompanied by insulin resistance. Frequently an impaired insulin action is also observed with streptozotocin induced diabetic rats. Such an insulin resistance is particularly also attributed to postreceptor defects.
With (a) untreated (normal) control animals (rats), (b) diabetic rats, and (c) diabetic brazilin treated rats glucose oxidation and lipogenesis were investigated (by means of the esterified lipids and the free fatty acids). Diabetes was induced by intravenous administration of streptozotocin (40 mg/kg live weight). Brazilin was administered intraperitoneally for 15 days (100 mg/kg body weight). Within the same period the same volume of saline solution was administered to the untreated animals of the control group.
For determining the effects of brazilin administration on the glucose oxidation, the method described by Winegard et al. (J. Biol. Chem. 233, 267 (1958)) was used, using ^14 C glucose (1-^14 C-glucose).

[3] = system: platelet aggregation in diabetic human plasma; experiment: Platelet aggregation in diabetic human plasma induced by ADP; format: cell-based
Procedure: (§1) The platelet aggregation was determined by a tubimetric method in a dual-channel aggregometer, assuming that a platelet-poor plasma represented 100% aggregation and that a platelet-rich plasma represented 0% aggregation. Each aggregometer tube was charged with 40 μl of platelet-rich plasma and 50 μl of test sample solution. The mixture was incubated at 37° C. for 2 min., whereupon 50 μl of ADP solution were added. Percent inhibition of the platelet aggregation caused by the test sample solution was calculated as follows: [formula]

[4] = system: platelet aggregation in normal human plasma; experiment: Platelet aggregation in normal human plasma induced by ADP; format: cell-based; settings: for T/min, Aggregation (first value) / Tmax, Aggregation (first value): control 75.1; for activity at 1000 µM / inhibition at 1000 µM / activity at 100 µM / inhibition at 100 µM: Homo sapiens, Platelet; for activity at 1000 µM / activity at 100 µM: control 100
Procedure: as §1

[5] = system: α-mannosidase; experiment: Lysosomal enzyme activity in kidney tissue; format: in vivo, mice
Source text: (§2) Possibly, the lysosomal glycosidases active in the kidneys are involved in the micro-angiopathy accompanying diabetes mellitus. Therefore, the lysosomal glycosidase activities upon administration of brazilin and full extract were examined.
(§3) A number of mice was divided into three groups. Group I, which was used as control group, remained untreated. To the rest of the mice diabetes was induced by administering alloxan. Part of these diabetic mice remained untreated (diabetic control group II); to the rest of the diabetic mice a dose of 100 mg of brazilin per kg body weight was administered daily. After a test period of 10 and 30 days, respectively, kidney tissue was taken from the laboratory animals and the enzyme fraction was determined. In particular, incubation was carried out for 30 min at 37° C., the reaction was stopped by adding 0.05M glycine-NaOH buffer solution (pH 10.4), centrifugation was carried out at 3000 U/min for 10 min, and the amount of p-nitrophenol formed per min and per mg of protein was determined spectrophotometrically at 410 nm at the supernatant.

[6] = system: β-galactosidase; experiment: Lysosomal enzyme activity in kidney tissue; format: in vivo, mice
Source text: as §2, §3

[7] = system: β-glucuronidase; experiment: Lysosomal enzyme activity in kidney tissue; format: in vivo, mice
Source text: as §2, §3

[8] = system: lysosomal glycosidases; experiment: Normalizing effect on lysosomal glycosidases (overall); format: in vivo; settings: kidney, diabetic mice
Source text: as §2, §3

[9] = system: erythrocyte deformability; experiment: Erythrocyte deformability (filtration rate of blood); format: in vivo, rats
Procedure: Increased blood viscosity and reduced erythrocyte deformability are typical pathological states of diabetic subjects. The effect of brazilin administration to diabetic laboratory animals (rats) on the blood viscosity and erythrocyte deformability of these animals was examined.
(§4) For administering brazilin, the laboratory animals were daily injected intraperitoneally with a dose of 100 mg of brazilin per kg body weight for 10 days. For inducing diabetes, a dose of 175 mg of alloxan per kg body weight was administered intraperitoneally.
For determining the erythrocyte deformability, the filtration rate of blood of the various laboratory animals containing approximately 4.9×10^12 erythrocytes per l was determined under common, standardized conditions.

[10] = system: erythropoesis; experiment: Effect on erythropoesis; set-up: species or system rats; settings: rat, in vivo
Procedure: as §4

[11] = Rev. Latinoam. Microbiol. 1, 225-232 (1958); cited from earlier work
[12] = system: lipid peroxidation in the mitochondria of rat liver; settings: Arch. Pharm. Res. 7, 63-64, 1984; cited from earlier work
[13] = system: plasmalipid; settings: spontaneously hypertensive rats; Fette-Seifen-Anstrichmittel 87, 74-76 (1985); cited from earlier work

With `Oc1ccc2c(c1)OC[C@]1(O)Cc3cc(O)c(O)cc3[C@H]21` [brazilin] the “affinity of the insulin receptors” value ([1]; erythrocytes, 15° C., 120 min, treated vs. control (FIGS. 6, 7)) was “no significant affinity differences”, the “number of insulin receptors” value ([1]; peripheral erythrocytes, treated vs. control) was “increase of the number of the peripheral insulin receptors” and the “restoration of initial CO2 production, basal” value ([2]; diabetic rats + brazilin) was 74.6%. For the same compound, the “Glucose→CO2, basal” value ([2]; diabetic rats + brazilin 100 mg/kg i.p. 15 days, n=8, P < 0.01 vs. diabetic control, diabetic 109.1, normal 172.8) was 156.6 ± 14.7 nmol/100 mg tissue/120 min, the “restoration of initial CO2 production, insulin stimulated” value ([2]; diabetic rats + brazilin, insulin 25 ng/ml) was 14.5% and the “Glucose→CO2, insulin stimulated” value ([2]; insulin 25 ng/ml, diabetic rats + brazilin, n=8, P < 0.1 vs diabetic control, diabetic 236.6, normal 694.2) was 303.1 ± 19.0 nmol/100 mg tissue/120 min. For the same compound, the “T/min, Aggregation (first value)” value ([3]; 10^-3 M, control 78.7) was 8.75%, the “Tmax, Aggregation (first value)” value ([3]; 10^-3 M, control 78.7) was 46.3% and the “Tmax, Aggregation (first value)” value ([3]; 10^-4 M, control 78.7) was 70.0%. The activity at 1000 µM ([3]; Homo sapiens, Platelet, 10^-3 M, control 100, read-out: Tmax, Aggregation relative to control (second value)) was 58.8%, the inhibition at 1000 µM ([3]; Homo sapiens, Platelet, 10^-3 M, read-out: T/min, Inhibition) was 88.9% and the inhibition at 1000 µM ([3]; Homo sapiens, Platelet, 10^-3 M, read-out: Tmax, Inhibition) was 41.2%. For the same compound, the activity at 100 µM ([3]; Homo sapiens, Platelet, 10^-4 M, control 100, read-out: Tmax, Aggregation relative to control (second value)) was 88.9%, the inhibition at 100 µM ([3]; Homo sapiens, Platelet, 10^-4 M, read-out: Tmax, Inhibition) was 11.1% and the “inhibition of the platelet aggregation” value ([3]; conclusion on Tables 12 and 13) was “considerable inhibition of the platelet aggregation”. The “T/min, Aggregation (first value)” value ([4]; 10^-3 M) was 21.1%, the “Tmax, Aggregation (first value)” value ([4]; 10^-3 M) was 31.5% and the “T/min, Aggregation (first value)” value ([4]; 10^-4 M) was 34.8%. For the same compound, the “Tmax, Aggregation (first value)” value ([4]; 10^-4 M) was 60.7%, the activity at 1000 µM ([4]; 10^-3 M, read-out: T/min, Aggregation relative to control (second value)) was 28.1% and the activity at 1000 µM ([4]; 10^-3 M, read-out: Tmax, Aggregation relative to control (second value)) was 41.8%. It also gave an inhibition at 1000 µM ([4]; 10^-3 M, read-out: T/min, Inhibition) of 71.9%, an inhibition at 1000 µM ([4]; 10^-3 M, read-out: Tmax, Inhibition) of 58.2% and an activity at 100 µM ([4]; 10^-4 M, read-out: T/min, Aggregation relative to control (second value)) of 46.4%. For the same compound, the activity at 100 µM ([4]; 10^-4 M, read-out: Tmax, Aggregation relative to control (second value)) was 80.1%, the inhibition at 100 µM ([4]; 10^-4 M, read-out: T/min, Inhibition) was 53.6% and the inhibition at 100 µM ([4]; 10^-4 M, read-out: Tmax, Inhibition) was 19.9%. The α-mannosidase activity ([5]; after 10 days, p < 0.001 vs. Group II (8.60), Group I 8.72) was 12.49 ± 1.34, the α-mannosidase activity ([5]; after 30 days, p < 0.001 vs. Group II (5.69), Group I 6.57) was 5.99 ± 0.54 and the β-galactosidase activity ([6]; after 10 days, p < 0.05 vs. Group II (14.74), Group I 11.53) was 12.33 ± 1.95. The β-galactosidase activity ([6]; after 30 days, p < 0.001 vs. Group II (7.39), Group I 8.90) was 10.28 ± 0.55, the β-glucuronidase activity ([7]; after 10 days, p < 0.025 vs. Group II (3.33), Group I 4.82) was 4.02 ± 0.65 and the β-glucuronidase activity ([7]; after 30 days, p < 0.05 vs. Group II (2.31), Group I 2.26) was 2.49 ± 0.25. The “effect on the lysosomal glycosidase activity” value [8] was “normalizing effect”, the Filtration rate ([9]; alloxan diabetic rats + brazilin, P < 0.01 vs. untreated and vs. diabetic control (17.4)) was 19.6 ± 0.4 mL/min and the “effect on filtration rate of diabetic animals” value ([9]; diabetic rats + brazilin) was “significant increase of the filtration rate”. For the same compound, the “effect on erythrocyte deformability” value ([9]; diabetic rats vs. control group) was “significant increase of the erythrocyte deformability”, the Filtration rate ([9]; normal rats + brazilin 100 mg/kg i.p. 10 days, normal 22.9) was 23.1 ± 0.3 mL/min and the “effect on filtration rate of normal animals” value ([9]; untreated control group + brazilin) was “did not signficantly influence the filtration rate”. The effect on erythropoesis [10] was “no effect on erythropoesis”, the antibacterial effect [11] was “antibacterial effect” and the “effect on lipid peroxidation in mitochondria of rat liver” value [12] was “effect on the lipid peroxidation”. For the same compound, the plasmalipid-reducing effect [13] was “plasmalipid-reducing effect”.

Reference: US4918099A, “Drug, preparation and use thereof” (priority 1985, dated 1990)
